Results published in PubChem BioAssay AID256 (DTP/NCI, 2004).
Inconclusive results and toxic doses are left out. Rule for the calls: active = survival T/C of 150% or more; inactive = T/C below 125% in these data.

System: CD2F1 mice, L1210 leukemia ip, survival T/C
Test: NCI In Vivo Anticancer Drug Screen. Data for tumor model L1210 Leukemia (intraperitoneal) in CD2F1 (CDF1) mice
Details: higher = longer survival
Summary of the method: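 Compound-dosed mice with transplantable tumor versus matched vehicle controls; endpoint ratio T/C reported.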

[1] = endpoint: mean survival time, dose: 12.5 mg/kg/injection, schedule: Q01DX009 (ip), vehicle: saline
[2] = endpoint: mean survival time, dose: 100.0 mg/kg/injection, schedule: Q04DX003 (ip), vehicle: saline with Tween-80
[3] = endpoint: mean survival time, dose: 200.0 mg/kg/injection, schedule: Q04DX003 (ip), vehicle: saline with Tween-80
[4] = endpoint: mean survival time, dose: 400.0 mg/kg/injection, schedule: Q04DX003 (ip), vehicle: saline with Tween-80
[5] = endpoint: mean survival time, dose: 100.0 mg/kg/injection, schedule: Q01DX009 (ip), vehicle: saline with Tween-80
[6] = endpoint: mean survival time, dose: 200.0 mg/kg/injection, schedule: Q01DX009 (ip), vehicle: saline with Tween-80
[7] = endpoint: mean survival time, dose: 400.0 mg/kg/injection, schedule: Q01DX009 (ip), vehicle: saline with Tween-80
[8] = endpoint: mean survival time, dose: 100.0 mg/kg/injection, schedule: Q04DX002 (ip), vehicle: saline with Tween-80
[9] = endpoint: mean survival time, dose: 200.0 mg/kg/injection, schedule: Q04DX002 (ip), vehicle: saline with Tween-80
[10] = endpoint: mean survival time, dose: 400.0 mg/kg/injection, schedule: Q04DX002 (ip), vehicle: saline with Tween-80
[11] = endpoint: mean survival time, dose: 25.0 mg/kg/injection, schedule: Q01DX009 (ip), vehicle: water
[12] = endpoint: mean survival time, dose: 50.0 mg/kg/injection, schedule: Q01DX009 (ip), vehicle: water

Measured: T/C

O=c1[nH]cnc2c1ccn2C1OC(CO)C(O)C1O (stereo unspecified)
inactive: endpoint: mean survival time, dose: 6.25 mg/kg/injection, schedule: Q01DX009 (ip), vehicle: saline 111 % of control | endpoint: mean survival time, dose: 6.25 mg/kg/injection, schedule: Q04DX003 (ip), vehicle: saline sonified 106 % of control | [1] 90 % of control | endpoint: mean survival time, dose: 12.5 mg/kg/injection, schedule: Q04DX003 (ip), vehicle: saline sonified 109 % of control | endpoint: mean survival time, dose: 16.7 mg/kg/injection, schedule: Q04DX003 (ip), vehicle: saline sonified 121 % of control | endpoint: mean survival time, dose: 25.0 mg/kg/injection, schedule: Q04DX003 (ip), vehicle: saline sonified 113 % of control | endpoint: mean survival time, dose: 37.5 mg/kg/injection, schedule: Q04DX003 (ip), vehicle: saline sonified 119 % of control

O=[N+]([O-])c1ccc2nc3ccccc3cc2c1
inactive: [2] 92 % of control | [3] 92 % of control | [4] 91 % of control

CC[N+]1(C)CCC(CN2c3ccccc3Sc3ccccc32)C1 (stereo unspecified)
inactive: [5] 93 % of control | [6] 98 % of control | [7] 110 % of control

CCN(CCc1ccc(N)cc1)C(Cc1ccccc1)c1cccc(OC)c1 (stereo unspecified)
inactive: [1] 102 % of control | endpoint: mean survival time, dose: 12.5 mg/kg/injection, schedule: Q04DX003 (ip), vehicle: saline 103 % of control | endpoint: mean survival time, dose: 25.0 mg/kg/injection, schedule: Q01DX009 (ip), vehicle: saline 97 % of control | endpoint: mean survival time, dose: 25.0 mg/kg/injection, schedule: Q04DX003 (ip), vehicle: saline 97 % of control | endpoint: mean survival time, dose: 50.0 mg/kg/injection, schedule: Q01DX009 (ip), vehicle: saline 100 % of control | endpoint: mean survival time, dose: 50.0 mg/kg/injection, schedule: Q04DX003 (ip), vehicle: saline 95 % of control

NC(=O)c1nc(C2OC(CO)C(O)C2O)cs1 (stereo unspecified)
inactive: endpoint: median survival time, dose: 50.0 mg/kg/injection, schedule: Q01DX005 (ip), vehicle: water 100 % of control | endpoint: median survival time, dose: 100.0 mg/kg/injection, schedule: Q01DX005 (ip), vehicle: water 102 % of control | endpoint: median survival time, dose: 200.0 mg/kg/injection, schedule: Q01DX005 (ip), vehicle: water 98 % of control | endpoint: median survival time, dose: 400.0 mg/kg/injection, schedule: Q01DX005 (ip), vehicle: water 101 % of control

N#CCCN(CCCN1CCOCC1)C(=S)Nc1cccc(C(F)(F)F)c1
inactive: endpoint: mean survival time, dose: 25.0 mg/kg/injection, schedule: Q04DX002 (ip), vehicle: saline with Tween-80 104 % of control | endpoint: mean survival time, dose: 50.0 mg/kg/injection, schedule: Q04DX002 (ip), vehicle: saline with Tween-80 98 % of control | [8] 106 % of control

Nc1nc2c([nH]c(=S)n2C2OC(CO)C(O)C2O)c(=O)[nH]1 (stereo unspecified)
inactive: [8] 100 % of control | [9] 97 % of control | [10] 97 % of control

O=S1(=O)CC(S(=O)(=O)O)C(S(=O)(=O)O)C1 (stereo unspecified)
inactive: endpoint: mean survival time, dose: 100.0 mg/kg/injection, schedule: Q04DX003 (ip), vehicle: saline 93 % of control | endpoint: mean survival time, dose: 200.0 mg/kg/injection, schedule: Q04DX003 (ip), vehicle: saline 101 % of control | endpoint: mean survival time, dose: 400.0 mg/kg/injection, schedule: Q04DX003 (ip), vehicle: saline 93 % of control

BrCCN(CCBr)c1ccc2c3c(cccc13)-c1ccccc1-2
inactive: endpoint: mean survival time, dose: 1.5 mg/kg/injection, schedule: Q01DX Z (ip), vehicle: saline 113 % of control | endpoint: mean survival time, dose: 2.0 mg/kg/injection, schedule: Q01DX Z (ip), vehicle: saline 98 % of control | endpoint: mean survival time, dose: 3.2 mg/kg/injection, schedule: Q01DX Z (ip), vehicle: saline 110 % of control | endpoint: mean survival time, dose: 5.0 mg/kg/injection, schedule: Q01DX Z (ip), vehicle: saline 121 % of control

O=P(c1ccccc1)(c1ccccc1)c1ccccc1
inactive: [5] 97 % of control | [2] 97 % of control | [6] 95 % of control | [3] 100 % of control | [7] 100 % of control

CC(C)(C)CC(C)(C)c1ccc(OCCOc2ccccc2NC(=O)c2ccc3ccccc3c2O)cc1
inactive: [5] 94 % of control | [6] 93 % of control | [7] 94 % of control

Cc1cn(C2CC(O)C(CS[As](C)C)O2)c(=O)[nH]c1=O (stereo unspecified)
inactive: endpoint: mean survival time, dose: 12.5 mg/kg/injection, schedule: Q01DX005 (ip), vehicle: distilled water + Tween-80 98 % of control | endpoint: mean survival time, dose: 25.0 mg/kg/injection, schedule: Q01DX005 (ip), vehicle: distilled water + Tween-80 102 % of control | endpoint: mean survival time, dose: 50.0 mg/kg/injection, schedule: Q01DX005 (ip), vehicle: distilled water + Tween-80 102 % of control | endpoint: mean survival time, dose: 100.0 mg/kg/injection, schedule: Q01DX005 (ip), vehicle: distilled water + Tween-80 93 % of control

C=C.O=C(O)/C=C\C(=O)O.[Mn]
inactive: endpoint: mean survival time, dose: 1.0 mg/kg/injection, schedule: Q01DX009 (ip), vehicle: saline with Tween-80 95 % of control | endpoint: mean survival time, dose: 1.0 mg/kg/injection, schedule: Q04DX003 (ip), vehicle: saline with Tween-80 97 % of control | endpoint: mean survival time, dose: 2.0 mg/kg/injection, schedule: Q01DX009 (ip), vehicle: saline with Tween-80 95 % of control | endpoint: mean survival time, dose: 2.0 mg/kg/injection, schedule: Q04DX003 (ip), vehicle: saline with Tween-80 95 % of control | endpoint: mean survival time, dose: 4.0 mg/kg/injection, schedule: Q04DX003 (ip), vehicle: saline with Tween-80 91 % of control

O=C(O)/C=C/C(=O)Nc1ccc(I)cc1
inactive: [5] 95 % of control | [2] 104 % of control | [6] 111 % of control | [3] 98 % of control | [4] 97 % of control

S=C(Oc1ccc(Cl)cc1)Sc1ccc(Cl)cc1
inactive: endpoint: mean survival time, dose: 100.0 mg/kg/injection, schedule: Q04DX002 (ip), vehicle: Klucel (hydroxypropylcellulose) (HPC) 101 % of control | endpoint: mean survival time, dose: 200.0 mg/kg/injection, schedule: Q04DX002 (ip), vehicle: Klucel (hydroxypropylcellulose) (HPC) 89 % of control | endpoint: mean survival time, dose: 400.0 mg/kg/injection, schedule: Q04DX002 (ip), vehicle: Klucel (hydroxypropylcellulose) (HPC) 97 % of control

CC1CCC(N=C2OCCN2N=O)CC1 (stereo unspecified)
inactive: endpoint: mean survival time, dose: 3.12 mg/kg/injection, schedule: Q01DX001 (ip), vehicle: water 97 % of control | endpoint: mean survival time, dose: 6.25 mg/kg/injection, schedule: Q01DX001 (ip), vehicle: water 96 % of control | endpoint: mean survival time, dose: 12.5 mg/kg/injection, schedule: Q01DX001 (ip), vehicle: water 98 % of control | endpoint: mean survival time, dose: 25.0 mg/kg/injection, schedule: Q01DX001 (ip), vehicle: water 94 % of control | endpoint: mean survival time, dose: 50.0 mg/kg/injection, schedule: Q01DX001 (ip), vehicle: water 94 % of control | endpoint: mean survival time, dose: 100.0 mg/kg/injection, schedule: Q01DX001 (ip), vehicle: water 108 % of control

N=C(N)c1ccc(N=NNc2ccc(C(=N)N)cc2)cc1
inactive: endpoint: median survival time, dose: 12.5 mg/kg/injection, schedule: Q01DX009 (ip), vehicle: saline with Tween-80 117 % of control | endpoint: median survival time, dose: 25.0 mg/kg/injection, schedule: Q01DX009 (ip), vehicle: saline with Tween-80 102 % of control

COc1cc(NC(=O)O/N=C/c2ccccn2)cc(OC)c1OC
inactive: endpoint: mean survival time, dose: 100.0 mg/kg/injection, schedule: Q01DX001 (ip), vehicle: saline with Tween-80 95 % of control | endpoint: mean survival time, dose: 400.0 mg/kg/injection, schedule: Q01DX001 (ip), vehicle: saline with Tween-80 92 % of control

NC(=O)Oc1cccc(OC(N)=O)c1
inactive: [11] 95 % of control | [12] 106 % of control | endpoint: mean survival time, dose: 100.0 mg/kg/injection, schedule: Q01DX009 (ip), vehicle: water 106 % of control | endpoint: mean survival time, dose: 200.0 mg/kg/injection, schedule: Q01DX009 (ip), vehicle: water 104 % of control | endpoint: mean survival time, dose: 400.0 mg/kg/injection, schedule: Q01DX009 (ip), vehicle: water 106 % of control

COc1ccc2c(c1[N+](=O)[O-])CC[C@@H]1[C@@H]2CC[C@]2(C)C(=O)CC[C@@H]12
inactive: endpoint: median survival time, dose: 50.0 mg/kg/injection, schedule: Q01DX009 (ip), vehicle: saline with Tween-80 103 % of control | endpoint: median survival time, dose: 100.0 mg/kg/injection, schedule: Q01DX009 (ip), vehicle: saline with Tween-80 103 % of control | endpoint: median survival time, dose: 200.0 mg/kg/injection, schedule: Q01DX009 (ip), vehicle: saline with Tween-80 102 % of control | endpoint: median survival time, dose: 400.0 mg/kg/injection, schedule: Q01DX009 (ip), vehicle: saline with Tween-80 103 % of control | endpoint: median survival time, dose: 800.0 mg/kg/injection, schedule: Q01DX009 (ip), vehicle: saline with Tween-80 106 % of control

CC1(C)COC(CC2(O)CCCCCC2)=N1
inactive: [8] 101 % of control | [2] 95 % of control | [9] 96 % of control | [3] 88 % of control | [10] 101 % of control | [4] 93 % of control

COc1ccc(C(=O)/C=C/c2ccc3cc(OC)c(OC)cc3c2)cc1OC
inactive: [11] 98 % of control | [12] 102 % of control

CCOC(=O)C(=O)CC(=O)c1ccc(OC)cc1
inactive: [5] 98 % of control | [2] 100 % of control | [6] 96 % of control | [3] 95 % of control | [7] 101 % of control | [4] 95 % of control

OC(c1ccccc1)C1CCN(Cc2ccccc2)CC1 (stereo unspecified)
inactive: [2] 96 % of control
